How the values were obtained:
Lipolase = biological target: T1, Lipolase (Thermomyces lanuginosus, UniProt O59952); test: storage stability of lipase (Lipolase activity, pNitrophenol-valerate substrate) in liquid formulations at 37° C.; type: biochemical, Thermomyces lanuginosa; details: Lipolase 0.4 wt %, storage at 37° C.
T1 construct: purchased Sigma-Aldrich
T1 sequence (O59952 23-291): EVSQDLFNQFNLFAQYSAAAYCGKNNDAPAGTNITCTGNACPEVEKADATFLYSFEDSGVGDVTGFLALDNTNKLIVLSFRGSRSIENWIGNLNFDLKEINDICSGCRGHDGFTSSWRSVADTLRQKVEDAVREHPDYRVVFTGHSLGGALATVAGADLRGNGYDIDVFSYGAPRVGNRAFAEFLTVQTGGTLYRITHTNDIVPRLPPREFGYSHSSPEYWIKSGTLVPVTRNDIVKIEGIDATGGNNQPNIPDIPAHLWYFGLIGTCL
Method: (§1) The storage stability of Lipase and Protease in water was assessed at 37° C.
(§2) Base test formulations were manufactured by making base formulations I to VI by mixing the components according to Table 1.
(§3) The respective salt (component (a)) or comparative compound was added, if applicable, to the respective base formulation in amounts as indicated in Table 1.
(§4) The amount of enzyme as provided in Table 1 refers to active protein. Either lipase or protease was added, depending on which enzyme activity was measured.
(§5) Lipolase® 100 L (CAS-No. 9001-62-1, EC-No. 232-619-9) was purchased from Sigma-Aldrich. Savinase® 16.0 L (CAS-No. 9014-01-1, EC-No. 232-752-2) was purchased from Sigma-Aldrich.
Lipolase activity at certain points in time as indicated in Table 2 was be determined by employing pNitrophenol-valerate (2.4 mM pNP-C5 in 100 mM Tris pH 8.0, 0.01% Triton X100) as a substrate. The absorption was measured at 20° C. every 30 seconds over 5 minutes at 405 nm. The slope (absorbance increase at 405 nm per minute) of the time dependent absorption-curve is directly proportional to the activity of the lipase.
The lipolytic activity values provided in Table 2 were calculated referring to the 100% value determined in the reference formulation at the time 0.
(§6) The nomenclature of formulations is as follows: the Roman number before the full stop characterizes the base formulation, the Arabian number the type of salt (A.# inventive salt (component (a)); C-(A.#) comparative compound). Zero (“0”): no salt, but diethylene glycol.

Savinase = biological target: T2, Savinase (Lederbergia lenta, UniProt P29600); test: storage stability of protease (Savinase activity, Suc-AAPF-pNA substrate) in liquid formulations at 37° C.; type: biochemical; details: Savinase 16.0 L 0.5 wt %, storage at 37° C.
T2 construct: purchased Sigma-Aldrich
T2 sequence (P29600 1-269): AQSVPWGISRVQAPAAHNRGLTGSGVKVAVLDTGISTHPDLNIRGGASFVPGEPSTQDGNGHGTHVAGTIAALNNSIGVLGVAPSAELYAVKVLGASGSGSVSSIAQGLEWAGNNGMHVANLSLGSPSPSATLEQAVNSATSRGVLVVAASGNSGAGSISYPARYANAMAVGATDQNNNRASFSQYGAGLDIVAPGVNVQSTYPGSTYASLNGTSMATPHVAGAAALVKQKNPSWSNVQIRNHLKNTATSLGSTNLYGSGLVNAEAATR
Method: as §1, §2, §3, §4, §5
Savinase activity at certain points in time as indicated in Table 3 was be determined by employing Succinyl-Ala-Ala-Pro-Phe-p-nitroanilide (Suc-AAPF-pNA, short AAPF) as substrate. pNA is cleaved from the substrate molecule by proteolytic cleavage, resulting in release of yellow color of free pNA which was determined by measuring OD405. Measurement were done at 20° C.
The proteolytic activity values provided in Table 3 were calculated referring to the 100% value determined in the reference formulation at the time 0.
as §6

[1] = base formulation I., component (a) 2.5 wt %, 1 d
[2] = base formulation I., component (a) 2.5 wt %, 3 d
[3] = base formulation I., component (a) 2.5 wt %, 6 d
[4] = base formulation I., component (a) 2.5 wt %, 10 d
[5] = base formulation I., component (a) 2.5 wt %, 15 d
[6] = base formulation I., component (a) 2.5 wt %, 20 d
[7] = base formulation I., component (a) 2.5 wt %, 25 d
[8] = base formulation I., component (a) 2.5 wt %, 30 d
[9] = base formulation I., component (a) 2.5 wt %, T0
[10] = base formulation IV., component (a) 4.0 wt %, 1 d
[11] = base formulation IV., component (a) 4.0 wt %, 3 d
[12] = base formulation IV., component (a) 4.0 wt %, 6 d
[13] = base formulation IV., component (a) 4.0 wt %, 10 d
[14] = base formulation IV., component (a) 4.0 wt %, 15 d
[15] = base formulation IV., component (a) 4.0 wt %, 20 d
[16] = base formulation IV., component (a) 4.0 wt %, 25 d
[17] = base formulation IV., component (a) 4.0 wt %, 30 d
[18] = base formulation IV., component (a) 4.0 wt %, T0
[19] = base formulation III., component (a) 2.5 wt %, 1 d
[20] = base formulation III., component (a) 2.5 wt %, 3 d
[21] = base formulation III., component (a) 2.5 wt %, 6 d
[22] = base formulation III., component (a) 2.5 wt %, 10 d
[23] = base formulation III., component (a) 2.5 wt %, 15 d
[24] = base formulation III., component (a) 2.5 wt %, 20 d
[25] = base formulation III., component (a) 2.5 wt %, 25 d
[26] = base formulation III., component (a) 2.5 wt %, 30 d
[27] = base formulation III., component (a) 2.5 wt %, T0

C[N+](C)(C)CCO.C[N+](C)(C)CCO.O=C([O-])CC(O)(CC(=O)O)C(=O)[O-] [C-(A.17)]
lipase activity (Lipolase; [1]): 90% | lipase activity (Lipolase; [2]): 80% | lipase activity (Lipolase; [3]): 70% | lipase activity (Lipolase; [4]): 53% | lipase activity (Lipolase; [5]): 42% | lipase activity (Lipolase; [6]): 38% | lipase activity (Lipolase; [7]): 33% | lipase activity (Lipolase; [8]): 29% | lipase activity (Lipolase; [9]): 97% | lipase activity (Lipolase; [10]): 93% | lipase activity (Lipolase; [11]): 86% | lipase activity (Lipolase; [12]): 74% | lipase activity (Lipolase; [13]): 63% | lipase activity (Lipolase; [14]): 51% | lipase activity (Lipolase; [15]): 46% | lipase activity (Lipolase; [16]): 38% | lipase activity (Lipolase; [17]): 33% | lipase activity (Lipolase; [18]): 96% | protease activity (Savinase; [1]): 90% | protease activity (Savinase; [2]): 81% | protease activity (Savinase; [3]): 70% | protease activity (Savinase; [4]): 49% | protease activity (Savinase; [5]): 38% | protease activity (Savinase; [6]): 30% | protease activity (Savinase; [7]): 23% | protease activity (Savinase; [8]): 12% | protease activity (Savinase; [9]): 98% | protease activity (Savinase; [19]): 94% | protease activity (Savinase; [20]): 83% | protease activity (Savinase; [21]): 71% | protease activity (Savinase; [22]): 53% | protease activity (Savinase; [23]): 42% | protease activity (Savinase; [24]): 34% | protease activity (Savinase; [25]): 27% | protease activity (Savinase; [26]): 14% | protease activity (Savinase; [27]): 92%

C[N+](C)(C)CCO.C[N+](C)(C)CCO.C[N+](C)(C)CCO.O=C([O-])CC(O)(CC(=O)[O-])C(=O)[O-] [C-(A.18)]
lipase activity (Lipolase; [1]): 91% | lipase activity (Lipolase; [2]): 84% | lipase activity (Lipolase; [3]): 72% | lipase activity (Lipolase; [4]): 55% | lipase activity (Lipolase; [5]): 45% | lipase activity (Lipolase; [6]): 39% | lipase activity (Lipolase; [7]): 32% | lipase activity (Lipolase; [8]): 29% | lipase activity (Lipolase; [9]): 98% | lipase activity (Lipolase; [10]): 91% | lipase activity (Lipolase; [11]): 84% | lipase activity (Lipolase; [12]): 72% | lipase activity (Lipolase; [13]): 58% | lipase activity (Lipolase; [14]): 49% | lipase activity (Lipolase; [15]): 46% | lipase activity (Lipolase; [16]): 39% | lipase activity (Lipolase; [17]): 35% | lipase activity (Lipolase; [18]): 95% | lipase activity (Lipolase; base formulation VI., component (a) 4.0 wt %, 1 d): 90% | lipase activity (Lipolase; base formulation VI., component (a) 4.0 wt %, 3 d): 83% | lipase activity (Lipolase; base formulation VI., component (a) 4.0 wt %, 6 d): 75% | lipase activity (Lipolase; base formulation VI., component (a) 4.0 wt %, 10 d): 58% | lipase activity (Lipolase; base formulation VI., component (a) 4.0 wt %, 15 d): 50% | lipase activity (Lipolase; base formulation VI., component (a) 4.0 wt %, 20 d): 48% | lipase activity (Lipolase; base formulation VI., component (a) 4.0 wt %, 25 d): 37% | lipase activity (Lipolase; base formulation VI., component (a) 4.0 wt %, 30 d): 32% | lipase activity (Lipolase; base formulation VI., component (a) 4.0 wt %, T0): 96% | protease activity (Savinase; [19]): 94% | protease activity (Savinase; [20]): 85% | protease activity (Savinase; [21]): 72% | protease activity (Savinase; [22]): 54% | protease activity (Savinase; [23]): 43% | protease activity (Savinase; [24]): 35% | protease activity (Savinase; [25]): 28% | protease activity (Savinase; [26]): 14% | protease activity (Savinase; [27]): 94% | protease activity (Savinase; base formulation V., component (a) 4.0 wt %, 1 d): 90% | protease activity (Savinase; base formulation V., component (a) 4.0 wt %, 3 d): 83% | protease activity (Savinase; base formulation V., component (a) 4.0 wt %, 6 d): 64% | protease activity (Savinase; base formulation V., component (a) 4.0 wt %, 10 d): 50% | protease activity (Savinase; base formulation V., component (a) 4.0 wt %, 15 d): 40% | protease activity (Savinase; base formulation V., component (a) 4.0 wt %, 20 d): 33% | protease activity (Savinase; base formulation V., component (a) 4.0 wt %, 25 d): 25% | protease activity (Savinase; base formulation V., component (a) 4.0 wt %, 30 d): 16% | protease activity (Savinase; base formulation V., component (a) 4.0 wt %, T0): 83%
